Where “and” joins values, the source holds several entries; their conditions need not be identical. Identical values can stand only once. Like-named read-outs stand apart in the source and are kept apart here. One block for each compound: values may come before it.
How the values were obtained:
P. falciparum (D6 Clone) = format: cell-based, Plasmodium falciparum; details: read-out: P. falciparum (D6 Clone) IC50; chloroquine-sensitive D6 clone
P. falciparum (W2 Clone) = format: cell-based, Plasmodium falciparum; details: read-out: P. falciparum (W2 Clone) IC50; chloroquine-resistant W2 clone
[1] = tested on: Leishmania donovani promastigotes; experiment: In vitro antileishmanial activity, Alamar Blue assay; format: cell-based; details: for IC50: read-out: L. donovani IC50; for IC90: read-out: L. donovani IC90
[2] = tested on: Staphylococcus aureus ATCC 29213; experiment: Antibacterial susceptibility testing; format: cell-based
[3] = tested on: Methicillin-resistant S. aureus ATCC 33591 (MRSA); experiment: Antibacterial susceptibility testing; format: cell-based, Staphylococcus aureus
[4] = tested on: Escherichia coli ATCC 35218; experiment: Antibacterial susceptibility testing; format: cell-based
[5] = tested on: Pseudomonas aeruginosa ATCC 27853; experiment: Antibacterial susceptibility testing; format: cell-based
[6] = tested on: Mycobacterium intracellulare ATCC 23068; experiment: Antibacterial susceptibility testing; format: cell-based
[7] = tested on: Candida albicans ATCC 90028; experiment: In vitro antifungal activity; format: cell-based
[8] = tested on: Candida glabrata ATCC 90030; experiment: In vitro antifungal activity; format: cell-based
Candida krusei ATCC 6258 = experiment: In vitro antifungal activity; format: cell-based
[9] = tested on: Cryptococcus neoformans ATCC 90113; experiment: In vitro antifungal activity; format: cell-based
[10] = tested on: Aspergillus fumigatus ATCC 204305; experiment: In vitro antifungal activity; format: cell-based
HIV-1NL4.3 virus = experiment: Anti-HIV activity, p24 antigen capture ELISA in CEM-GFP cells; format: cell-based; details: CEM-GFP cells infected with HIV-1NL4.3, non-cytotoxic concentration

IC50 (P. falciparum (D6 Clone)): 14.8 µM | IC50 (P. falciparum (W2 Clone)): 13.7 µM | IC50 ([1]; promastigotes): 48.2 µM | IC90 ([1]; promastigotes): 124 µM | S. aureus MIC [2]: 80.32 µM | IC50 ([2]; read-out: S. aureus IC50): 64.1 µM | MRSA MIC [3]: 80.3 µM | IC50 ([3]; read-out: MRSA IC50): 56 µM and 56.1 µM | IC50 ([6]; read-out: M. intracellulare IC50): 79.5 µM | IC50 ([9]; read-out: Cryptococcus neoformans IC50): 76.2 µM
Compound: CCCCC[C@@H]1C[C@@H]2CC[C@@H]3C[C@H](C)NC(=N1)N32 (racemic) [17l, batzelladine K]
S. aureus MBC [2]: - (“-” = Not active at the highest test concentration of 20 μg/mL) | MRSA MBC [3]: - (“-” = Not active at the highest test concentration of 20 μg/mL) | E.coli IC50 [4]: - (“-” = Not active at the highest test concentration of 20 μg/mL) | E.coli MBC [4]: - (“-” = Not active at the highest test concentration of 20 μg/mL) | E.coli MIC [4]: - (“-” = Not active at the highest test concentration of 20 μg/mL) | P. aeruginosa IC50 [5]: - (“-” = Not active at the highest test concentration of 20 μg/mL) | P. aeruginosa MBC [5]: - (“-” = Not active at the highest test concentration of 20 μg/mL) | P. aeruginosa MIC [5]: - (“-” = Not active at the highest test concentration of 20 μg/mL) | M. intracellulare MBC [6]: - (“-” = Not active at the highest test concentration of 20 μg/mL) | M. intracellulare MIC [6]: - (“-” = Not active at the highest test concentration of 20 μg/mL) | Candida albicans MFC [7]: - (“-” = No activity at the highest test concentration of 20 μg/mL) | Candida albicans MIC [7]: - (“-” = No activity at the highest test concentration of 20 μg/mL) | Candida glabrata MFC [8]: - (“-” = No activity at the highest test concentration of 20 μg/mL) | Candida glabrata MIC [8]: - (“-” = No activity at the highest test concentration of 20 μg/mL) | Candida krusei MFC (Candida krusei ATCC 6258): - (“-” = No activity at the highest test concentration of 20 μg/mL) | Candida krusei MIC (Candida krusei ATCC 6258): - (“-” = No activity at the highest test concentration of 20 μg/mL) | Cryptococcus neoformans MFC [9]: - (“-” = No activity at the highest test concentration of 20 μg/mL) | Cryptococcus neoformans MIC [9]: - (“-” = No activity at the highest test concentration of 20 μg/mL) | Aspergillus fumigatus MFC [10]: - (“-” = No activity at the highest test concentration of 20 μg/mL) | Aspergillus fumigatus MIC [10]: - (“-” = No activity at the highest test concentration of 20 μg/mL) | anti-HIV activity (inhibition of HIV-1) (HIV-1NL4.3 virus): no anti-HIV activity

IC50 ([1]; Leishmania donovani): 2.94 µM | IC90 ([1]; Leishmania donovani): 5.88 µM
Compound: N=C(N)c1ccc(OCCCCCOc2ccc(C(=N)N)cc2)cc1 [Pentamidine]

IC50 ([1]; Leishmania donovani): 0.173 µM | IC90 ([1]; Leishmania donovani): 0.358 µM
Compound: C[C@@H]1[C@H](O)[C@@H](C)/C=C/C=C/C=C/C=C/C=C/C=C/C=C/[C@H](O[C@@H]2O[C@H](C)[C@@H](O)[C@H](N)[C@@H]2O)C[C@@H]2O[C@](O)(C[C@@H](O)C[C@@H](O)[C@H](O)CC[C@@H](O)C[C@@H](O)CC(=O)O[C@H]1C)C[C@H](O)[C@H]2C(=O)O [Amphotericin B]
